This is an account of results in publication PMC7330904 (ACS Omega, 2020).

One assay deals with Hep-G2 cells. The assay is described as follows: APOPercentage apoptosis assay, Hep-G2. In kind it is cell-based, human. Particulars: Hep-G2, 24 h, IC50 of complexes, flow cytometry, vs untreated cells.
In the next assay the test system is calf thymus DNA (CT-DNA). Particulars: cited from earlier work.

Regarding `N.N.[Cl][Pt][Cl]` [Cisplatin], the “induction of apoptosis (APOPercentage dye uptake)” value in the assay with Hep-G2 cells is listed as “but not Hep-G2 cells”.

Take `COc1cccc2c1C(=O)c1c(O)c3c(c(O)c1C2=O)C[C@@](O)(C(=O)CO)C[C@@H]3O[C@H]1C[C@H](N)[C@@H](O)[C@H](C)O1` [Epirubicin]: in the assay with calf thymus DNA (CT-DNA), the “binding constant Kb of known DNA intercalator” value (“binding constant Kb” for short) was 3.4 × 10^4 M^–1.

Regarding `Nc1ccc2cc3ccc(N)cc3nc2c1` [Proflavine], in the assay with calf thymus DNA (CT-DNA), the “binding constant Kb” value is on record as 2.32 × 10^4 M^–1. Regarding `CC[n+]1c(-c2ccccc2)c2cc(N)ccc2c2ccc(N)cc21` [ethidium bromide], the “binding constant Kb” value in the assay on calf thymus DNA (CT-DNA) is given as 1.4 × 10^6 M^–1.
